Reference: ChEMBL document CHEMBL4813924, “Isolation and Pharmacological Characterization of Six Opioidergic Picralima nitida Alkaloids” (J Nat Prod, 2021)
Calls of active or inactive are those of the source. The rule behind the calls is not given here.

Legend:
Mus musculus [1] = assay: Antinociceptive activity against C57Bl/6N mouse model of thermal-induced nociception at 3 mg/kg, sc measured at 110 mins by hot-plate test; assay type: functional, organism-based
[2] = target: Delta-type opioid receptor (Mus musculus, UniProt P32300); assay: Agonist activity at mouse FLAG-tagged delta opioid receptor expressed in HEK293 cells assessed as inhibition of forskolin-induced cAMP production preincubated for 20 mins followed by forskolin stimulation and measured after 15 mins by Glo-sensor reagent based assay; assay type: functional, cell-based
[3] = target: Mu-type opioid receptor (Mus musculus) (UniProt P42866); assay: Agonist activity at mouse HA-tagged mu opioid receptor expressed in HEK293 cells assessed as inhibition of forskolin-induced cAMP production preincubated for 20 mins followed by forskolin stimulation and measured after 15 mins by Glo-sensor reagent based assay relative to DAMGO; assay type: functional, cell-based; set-up: scale not given: the % may be the effect or the level left; conditions: filed as agonist
Mus musculus [4] = assay: Antinociceptive activity against C57Bl/6N mouse model of thermal-induced nociception at 10 mg/kg, sc measured at 50 mins by tail-flick test; assay type: functional, organism-based
Mus musculus [5] = assay: Antinociceptive activity against C57Bl/6N mouse model of thermal-induced nociception at 30 mg/kg, sc measured at 30 mins by tail-flick test; assay type: functional, organism-based
[6] = target: Delta-type opioid receptor (Mus musculus) (UniProt P32300); assay: Agonist activity at mouse FLAG-tagged delta opioid receptor expressed in HEK293 cells assessed as inhibition of forskolin-induced cAMP production preincubated for 20 mins followed by forskolin stimulation and measured after 15 mins by Glo-sensor reagent based assay relative to Leu-Enk; assay type: functional, cell-based; set-up: scale not given: the % may be the effect or the level left; conditions: filed as agonist
[7] = target: T1, Kappa-type opioid receptor (Homo sapiens, UniProt P41145); assay: Displacement of [3H]-U69593 from human kappa opioid receptor expressed in U2OS cells by radioligand binding assay; assay type: cell-based
[8] = target: T2, Delta-type opioid receptor (Homo sapiens, UniProt P41143); assay: Displacement of [3H]-DPDPE from human delta opioid receptor expressed in CHO-K1 cells by radioligand binding assay; assay type: cell-based
Mu-type opioid receptor [9] = target: T3, Mu-type opioid receptor (Homo sapiens, UniProt P35372); assay: Displacement of [3H]-DAMGO from human mu opioid receptor expressed in CHO-K1 cells by radioligand binding assay; assay type: cell-based
Mu-type opioid receptor [10] = target: Mu-type opioid receptor (Mus musculus, UniProt P42866); assay: Agonist activity at mouse HA-tagged mu opioid receptor expressed in HEK293 cells assessed as inhibition of forskolin-induced cAMP production preincubated for 20 mins followed by forskolin stimulation and measured after 15 mins by Glo-sensor reagent based assay; assay type: functional, cell-based
D(1B) dopamine receptor [11] = target: T4, D(1B) dopamine receptor (Homo sapiens, UniProt P21918); assay: Displacement of [3H]-SCH23390 from dopamine D5 receptor (unknown origin) expressed in HEK-293T cells assessed as inhibition constant; assay type: cell-based
[12] = target: Histamine H3 receptor (Homo sapiens) (UniProt Q9Y5N1); assay: Displacement of [3H]-alpha-methylhistamine from histamine H3 receptor (unknown origin) expressed in Flp-In-293 cells at 10 uM relative to control; assay type: cell-based
[13] = target: Kappa-type opioid receptor (Mus musculus, UniProt P33534); assay: Agonist activity at mouse FLAG-tagged kappa opioid receptor expressed in HEK293 cells assessed as inhibition of forskolin-induced cAMP production preincubated for 20 mins followed by forskolin stimulation and measured after 15 mins by Glo-sensor reagent based assay; assay type: functional, cell-based
[14] = target: Sodium-dependent serotonin transporter (Homo sapiens) (UniProt P31645); assay: Displacement of [3H]-citalopram from SERT (unknown origin) expressed in HEK cells at 10 uM relative to control; assay type: cell-based
D(1B) dopamine receptor [15] = target: T4, D(1B) dopamine receptor; assay: Displacement of [3H]-SCH23390 from dopamine D5 receptor (unknown origin) expressed in HEK-293T cells at 10 uM; assay type: cell-based
[16] = target: Kappa-type opioid receptor (Mus musculus) (UniProt P33534); assay: Agonist activity at mouse FLAG-tagged kappa opioid receptor expressed in HEK293 cells assessed as inhibition of forskolin-induced cAMP production preincubated for 20 mins followed by forskolin stimulation and measured after 15 mins by Glo-sensor reagent based assay relative to U50488; assay type: functional, cell-based; set-up: scale not given: the % may be the effect or the level left; conditions: filed as agonist
Mu-type opioid receptor [17] = target: T3, Mu-type opioid receptor; assay: Displacement of [3H]-DAMGO from mu opioid receptor (unknown origin) expressed in HEK cells at 10 uM; assay type: cell-based
[18] = target: T1, Kappa-type opioid receptor; assay: Agonist activity at human kappa opioid receptor expressed in U2OS cells assessed as beta-arrestin2 recruitment incubated for 90 mins by PathHunter assay; assay type: functional, cell-based
[19] = target: T1, Kappa-type opioid receptor; assay: Agonist activity at human kappa opioid receptor expressed in U2OS cells assessed as beta-arrestin2 recruitment incubated for 90 mins by PathHunter assay relative to U50488; assay type: functional, cell-based
[20] = target: T1, Kappa-type opioid receptor; assay: Displacement of [3H]-U69593 from kappa opioid receptor (unknown origin) expressed in HEK cells at 10 uM; assay type: cell-based; conditions: filed as agonist
[21] = target: T2, Delta-type opioid receptor; assay: Displacement of [3H]-DADLE from delta opioid receptor (unknown origin) expressed in HEK cells at 10 uM; assay type: cell-based; conditions: filed as agonist
Mus musculus [22] = assay: Antinociceptive activity against C57Bl/6N mouse model of thermal-induced nociception at 6 mg/kg, sc measured at 30 mins by hot-plate test; assay type: functional, organism-based
Mus musculus [23] = assay: Antinociceptive activity against C57Bl/6N mouse model of thermal-induced nociception at 6 mg/kg, sc measured at 30 mins by tail-flick test; assay type: functional, organism-based

Chain of Histamine H3 receptor (Homo sapiens) (Q9Y5N1 whole entry): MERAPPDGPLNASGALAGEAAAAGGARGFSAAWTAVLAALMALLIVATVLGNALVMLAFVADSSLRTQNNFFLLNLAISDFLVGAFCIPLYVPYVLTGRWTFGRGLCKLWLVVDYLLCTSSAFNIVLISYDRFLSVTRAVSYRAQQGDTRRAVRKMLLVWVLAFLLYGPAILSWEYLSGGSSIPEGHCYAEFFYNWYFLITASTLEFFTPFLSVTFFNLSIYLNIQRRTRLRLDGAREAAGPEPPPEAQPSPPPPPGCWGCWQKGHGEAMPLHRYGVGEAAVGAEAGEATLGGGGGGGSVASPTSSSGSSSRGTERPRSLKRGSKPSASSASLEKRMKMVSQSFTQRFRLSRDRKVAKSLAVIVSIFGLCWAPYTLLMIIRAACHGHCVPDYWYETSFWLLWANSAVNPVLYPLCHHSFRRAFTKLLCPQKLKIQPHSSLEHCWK
T1 sequence (P41145 whole entry): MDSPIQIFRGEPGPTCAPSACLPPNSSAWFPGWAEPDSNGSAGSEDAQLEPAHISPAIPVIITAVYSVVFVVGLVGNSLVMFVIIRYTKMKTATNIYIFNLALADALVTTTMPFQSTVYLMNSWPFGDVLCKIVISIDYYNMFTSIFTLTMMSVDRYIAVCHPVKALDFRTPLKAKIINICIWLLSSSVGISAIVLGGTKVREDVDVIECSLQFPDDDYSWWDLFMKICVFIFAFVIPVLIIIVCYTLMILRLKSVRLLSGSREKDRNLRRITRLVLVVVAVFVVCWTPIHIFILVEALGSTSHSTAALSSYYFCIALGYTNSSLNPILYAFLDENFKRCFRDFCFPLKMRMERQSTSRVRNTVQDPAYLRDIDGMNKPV
Chain of Sodium-dependent serotonin transporter (Homo sapiens) (P31645 whole entry, looked up): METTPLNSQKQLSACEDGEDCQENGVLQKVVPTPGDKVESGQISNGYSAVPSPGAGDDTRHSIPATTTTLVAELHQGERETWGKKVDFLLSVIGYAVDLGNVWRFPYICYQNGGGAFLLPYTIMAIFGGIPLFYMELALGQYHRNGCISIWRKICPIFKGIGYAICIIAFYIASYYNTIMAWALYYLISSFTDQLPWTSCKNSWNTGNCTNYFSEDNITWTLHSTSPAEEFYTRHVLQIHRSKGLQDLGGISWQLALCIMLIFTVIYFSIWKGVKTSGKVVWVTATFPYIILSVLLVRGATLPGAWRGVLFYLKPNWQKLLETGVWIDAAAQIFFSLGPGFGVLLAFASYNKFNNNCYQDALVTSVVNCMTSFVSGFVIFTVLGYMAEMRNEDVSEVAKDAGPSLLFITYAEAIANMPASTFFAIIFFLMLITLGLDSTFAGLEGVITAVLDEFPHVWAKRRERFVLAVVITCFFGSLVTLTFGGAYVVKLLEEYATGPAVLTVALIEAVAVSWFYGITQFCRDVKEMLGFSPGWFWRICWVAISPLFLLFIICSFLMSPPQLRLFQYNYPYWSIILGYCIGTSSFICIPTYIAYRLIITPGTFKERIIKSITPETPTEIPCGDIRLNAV
Chain of Delta-type opioid receptor (Mus musculus) (P32300 whole entry): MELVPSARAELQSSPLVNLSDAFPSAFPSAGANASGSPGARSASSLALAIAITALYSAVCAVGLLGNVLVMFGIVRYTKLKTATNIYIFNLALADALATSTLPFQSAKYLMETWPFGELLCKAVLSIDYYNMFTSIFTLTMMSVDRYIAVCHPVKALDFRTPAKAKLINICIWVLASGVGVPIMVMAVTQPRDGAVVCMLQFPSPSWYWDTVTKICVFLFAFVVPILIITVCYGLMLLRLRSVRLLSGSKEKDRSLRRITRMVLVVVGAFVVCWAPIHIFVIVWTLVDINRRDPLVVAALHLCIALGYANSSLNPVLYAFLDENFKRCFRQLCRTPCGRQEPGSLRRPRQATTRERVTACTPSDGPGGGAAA
Chain of Delta-type opioid receptor (Mus musculus, UniProt P32300) (P32300 whole entry): as above
T2 sequence (P41143 whole entry): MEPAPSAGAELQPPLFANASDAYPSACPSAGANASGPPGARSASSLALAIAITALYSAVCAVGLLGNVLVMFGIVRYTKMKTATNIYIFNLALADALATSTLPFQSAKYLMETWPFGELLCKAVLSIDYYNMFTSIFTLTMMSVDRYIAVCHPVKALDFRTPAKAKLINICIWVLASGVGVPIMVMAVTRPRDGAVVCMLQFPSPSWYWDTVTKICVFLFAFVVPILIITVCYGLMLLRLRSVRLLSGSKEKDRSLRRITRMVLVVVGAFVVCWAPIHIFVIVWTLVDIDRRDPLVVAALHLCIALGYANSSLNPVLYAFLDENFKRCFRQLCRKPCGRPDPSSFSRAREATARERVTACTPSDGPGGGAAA
Chain of Kappa-type opioid receptor (Mus musculus, UniProt P33534) (P33534 whole entry): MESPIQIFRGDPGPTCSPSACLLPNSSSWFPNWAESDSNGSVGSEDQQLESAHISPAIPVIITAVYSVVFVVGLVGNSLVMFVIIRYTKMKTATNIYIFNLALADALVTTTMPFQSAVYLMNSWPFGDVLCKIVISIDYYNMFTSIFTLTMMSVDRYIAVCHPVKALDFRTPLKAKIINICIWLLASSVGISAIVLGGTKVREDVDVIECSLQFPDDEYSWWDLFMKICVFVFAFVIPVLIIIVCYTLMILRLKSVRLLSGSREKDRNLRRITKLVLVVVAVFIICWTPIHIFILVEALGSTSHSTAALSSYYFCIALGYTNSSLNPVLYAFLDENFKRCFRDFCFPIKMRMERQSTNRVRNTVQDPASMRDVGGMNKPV
Chain of Kappa-type opioid receptor (Mus musculus) (P33534 whole entry): as above
Chain of Mu-type opioid receptor (Mus musculus) (P42866 whole entry): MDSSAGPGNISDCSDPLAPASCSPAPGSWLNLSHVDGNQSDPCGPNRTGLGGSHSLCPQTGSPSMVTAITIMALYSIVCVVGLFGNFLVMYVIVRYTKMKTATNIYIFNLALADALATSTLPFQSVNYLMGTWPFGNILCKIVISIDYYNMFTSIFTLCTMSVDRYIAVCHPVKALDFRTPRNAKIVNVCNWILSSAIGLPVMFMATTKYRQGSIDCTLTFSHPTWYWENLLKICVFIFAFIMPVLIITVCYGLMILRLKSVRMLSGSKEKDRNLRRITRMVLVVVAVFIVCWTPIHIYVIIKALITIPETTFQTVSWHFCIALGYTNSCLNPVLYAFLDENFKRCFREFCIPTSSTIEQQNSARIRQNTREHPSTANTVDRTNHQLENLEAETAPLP
Chain of Mu-type opioid receptor (Mus musculus, UniProt P42866) (P42866 whole entry): as above
T3 sequence (P35372 whole entry): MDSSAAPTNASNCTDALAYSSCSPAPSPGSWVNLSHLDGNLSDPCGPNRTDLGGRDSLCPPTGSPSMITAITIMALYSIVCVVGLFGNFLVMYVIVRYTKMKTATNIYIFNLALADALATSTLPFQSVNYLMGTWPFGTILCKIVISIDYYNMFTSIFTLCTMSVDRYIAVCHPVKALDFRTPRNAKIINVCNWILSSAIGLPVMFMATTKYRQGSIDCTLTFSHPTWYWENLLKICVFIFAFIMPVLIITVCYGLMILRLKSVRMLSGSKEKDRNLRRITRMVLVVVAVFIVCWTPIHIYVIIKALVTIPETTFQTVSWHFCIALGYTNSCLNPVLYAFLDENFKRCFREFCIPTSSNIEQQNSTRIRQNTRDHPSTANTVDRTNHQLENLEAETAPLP
T4 sequence (P21918 whole entry): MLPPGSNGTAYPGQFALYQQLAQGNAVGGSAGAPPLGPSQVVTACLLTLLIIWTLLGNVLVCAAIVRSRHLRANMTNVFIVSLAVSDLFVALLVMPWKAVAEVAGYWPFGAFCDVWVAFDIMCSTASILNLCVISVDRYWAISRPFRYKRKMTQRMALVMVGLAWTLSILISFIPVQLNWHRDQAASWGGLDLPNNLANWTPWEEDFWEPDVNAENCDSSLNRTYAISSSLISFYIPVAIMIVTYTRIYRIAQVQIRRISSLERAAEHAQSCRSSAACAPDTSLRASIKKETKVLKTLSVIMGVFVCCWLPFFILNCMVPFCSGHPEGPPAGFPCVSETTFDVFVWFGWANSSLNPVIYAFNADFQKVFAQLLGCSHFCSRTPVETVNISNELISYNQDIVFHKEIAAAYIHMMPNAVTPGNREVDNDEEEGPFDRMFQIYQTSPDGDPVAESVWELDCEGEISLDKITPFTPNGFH

C/C=C1/CN2[C@H]3Cc4c([nH]c5ccccc45)[C@@H]2C[C@@H]1[C@]3(CO)C(=O)OC
Activity (Mus musculus [1]): inactive
IC50 ([2]; read-out: IC50): 15.4 µM
Activity [3]: 94%
Activity (Mus musculus [4]): Active
Activity (Mus musculus [5]): Active
Activity [6]: 90%
Ki [7]: 14.2 µM
Ki [8]: 15 µM
Ki (Mu-type opioid receptor [9]): 0.32 µM
IC50 (Mu-type opioid receptor [10]): 3.14 µM

C/C=C1/CN2CC[C@@]34c5ccccc5N(C)[C@]35OC[C@@]4(C(=O)OC)[C@H]1C[C@H]25
Ki (D(1B) dopamine receptor [11]): > 10 µM
IC50 ([2]; read-out: IC50): 95.6 µM
inhibition [12]: < 60%
IC50 [13]: 6.46 µM
inhibition [14]: < 60%
inhibition (D(1B) dopamine receptor [15]): Active
Ki [8]: 8.37 µM

C/C=C1/CN2CC[C@]34C(=C(C(=O)OC)[C@H]1C[C@H]23)Nc1ccccc14 [AKUAMMICINE]
Ki (D(1B) dopamine receptor [11]): > 10 µM
IC50 ([2]; read-out: IC50): 12.4 µM
IC50 ([2]; read-out: pIC50 (converted)): 12.6 µM
inhibition [12]: < 60%
Activity [3]: 45%
Activity [16]: 84%
inhibition (Mu-type opioid receptor [17]; filed as agonist): Active
Activity [6]: 60%
Ki [7]: 0.089 µM
IC50 [13]: 0.24 µM
EC50 [18]: 39.8 µM
Activity ([19]; filed as agonist): 50%
inhibition [14]: < 60%
inhibition [20]: Active
inhibition [21]: Active
inhibition (D(1B) dopamine receptor [15]): Active
Ki [8]: 23.2 µM
Ki (Mu-type opioid receptor [9]): 3.31 µM
IC50 (Mu-type opioid receptor [10]): 8.24 µM

C/C=C1/CN2CC[C@]34C(=Nc5ccccc53)[C@@H]2C[C@@H]1[C@@]4(COC(C)=O)C(=O)OC
Ki (D(1B) dopamine receptor [11]): > 10 µM
IC50 ([2]; read-out: IC50): 24.4 µM
inhibition [12]: < 60%
Activity [3]: 50%
Activity [16]: 92%
inhibition (Mu-type opioid receptor [17]): inactive
Activity [6]: 90%
Ki [7]: 1.11 µM
IC50 [13]: 2.71 µM
Activity [19]: 30%
inhibition [14]: < 60%
inhibition [20]: Active
inhibition [21]: Active
inhibition (D(1B) dopamine receptor [15]): Active
Ki [8]: 60.3 µM
Ki (Mu-type opioid receptor [9]): 30.7 µM
IC50 (Mu-type opioid receptor [10]): 18.7 µM

CN1CC[C@]23c4c5ccc(O)c4O[C@H]2[C@@H](O)C=C[C@H]3[C@H]1C5
Activity (Mus musculus [22]): Active
Activity (Mus musculus [23]): Active

C/C=C1/CN2[C@@H]3C[C@@]45c6ccccc6N[C@]4(O3)[C@@H]2C[C@@H]1[C@@]5(COC(C)=O)C(=O)OC
Ki (D(1B) dopamine receptor [11]): > 10 µM
inhibition [12]: < 60%
Activity [16]: 92%
inhibition (Mu-type opioid receptor [17]): inactive
Ki [7]: 2.38 µM
IC50 [13]: 1.97 µM
inhibition [14]: < 60%
inhibition [20]: Active
inhibition [21]: Active
inhibition (D(1B) dopamine receptor [15]): Active
Ki [8]: 98.8 µM
Ki (Mu-type opioid receptor [9]): 132 µM
IC50 (Mu-type opioid receptor [10]): 45 µM

C/C=C1/CN2CC[C@@]34c5cc(O)ccc5N(C)[C@]35OC[C@@]4(C(=O)OC)[C@H]1C[C@H]25
Ki (D(1B) dopamine receptor [11]): > 10 µM
IC50 ([2]; read-out: IC50): 20.3 µM
inhibition [12]: < 60%
IC50 [13]: 0.073 µM
inhibition [14]: < 60%
inhibition (D(1B) dopamine receptor [15]): Active
Ki [8]: 10.4 µM
